Earlier results in PubChem BioAssay AID1259409 (Chemical Carcinogenesis Research Information System (CCRIS), 2018).

Tested on: rodent chemically induced tumor inhibition, incidence and multiplicity
Experiment: CCRIS tumor inhibitor studies

SMILES	tumour outcome (control, treated, inhibition, significance) (Carcinogen: 7,12-DIMETHYLBENZ[A]ANTHRACENE, 57-97-6, Dose [Inhibitor]: 0, 0.2 G/KG OF DIET OF 50:50 MIXTURE OF KAHWEOL AND CAFESTOL FOR 14 WK BEGINNING 1 WK PRIOR TO CARCINOGEN TREATMENT (STU, Route [Inhibitor]: ORAL, Species: HAMSTER, Strain/Sex: SYRIAN/FEMALE, Target Tissue: Type of Lesion: BUCCAL POUCH: TUMOR, Dose [Carcinogen]: 0.5% SOLUTION IN MINERAL OIL PAINTED ON LEFT BUCCAL POUCH 3/WK FOR 13 WK, Promoter: NONE USED)	tumour outcome (control, treated, inhibition, significance) (Carcinogen: 7,12-DIMETHYLBENZ[A]ANTHRACENE, 57-97-6, Dose [Inhibitor]: 0, 2 G/KG OF DIET OF 50:50 MIXTURE OF KAHWEOL AND CAFESTOL FOR 14 WK BEGINNING 1 WK PRIOR TO CARCINOGEN TREATMENT (STUDY, Route [Inhibitor]: ORAL, Species: HAMSTER, Strain/Sex: SYRIAN/FEMALE, Target Tissue: Type of Lesion: BUCCAL POUCH: TUMOR, Dose [Carcinogen]: 0.5% SOLUTION IN MINERAL OIL PAINTED ON LEFT BUCCAL POUCH 3/WK FOR 13 WK, Promoter: NONE USED)	tumour outcome (control, treated, inhibition, significance) (Carcinogen: 7,12-DIMETHYLBENZ[A]ANTHRACENE, 57-97-6, Dose [Inhibitor]: 0.06 MMOL/G DIET DAILY FOR 17 WK STARTING 1 WK PRIOR TO CARCINOGEN TREATMENT AND CONTINUING THROUGH THE END OF THE STUDY, Route [Inhibitor]: ORAL, Species: RAT, Strain/Sex: SPRAGUE-DAWLEY/FEMALE, Target Tissue: Type of Lesion: MAMMARY GLAND: TUMOR, Dose [Carcinogen]: 12 MG IN 1 ML OLIVE OIL ONCE, Promoter: NONE USED)	tumour outcome (control, treated, inhibition, significance) (Carcinogen: N-METHYL-N'-NITRO-N-NITROSOGUANADINE, 70-25-7, Dose [Inhibitor]: 0, 150 MG/KG BW 1/2 D FOR 26 WK BEGINNING POST CARCINOGEN TREATMENT (STUDY DURATION: 52 WK), Route [Inhibitor]: SUBCUTANEOUS, Species: RAT, Strain/Sex: WISTAR/MALE, Target Tissue: Type of Lesion: STOMACH: ADENOCARCINOMA, Dose [Carcinogen]: 25 UG/ML IN DRINKING WATER FOR 25 WK, Promoter: AMMONIUM ACETATE, 631-61-8, SODIUM HYPOCHLORITE, 7681-52-9, Promoter: AMMONIUM ACETATE, 631-61-8, SODIUM HYPOCHLORITE, 7681-52-9)	tumour outcome (control, treated, inhibition, significance) (Carcinogen: N-NITROSOBIS(2-OXOPROPYL)AMINE [60559-38-4], Dose [Inhibitor]: 2% IN DIET FOR 27 WK BEGINNING IMMEDIATELY POST LAST CARCINOGEN DOSE (STUDY DURATION: 32 WK), Route [Inhibitor]: ORAL, Species: HAMSTER, Strain/Sex: SYRIAN/FEMALE, Target Tissue: Type of Lesion: PANCREAS: ADENOCARCINOMA, Dose [Carcinogen]: 10 MG/KG BW 1X/WK FOR 5 WK (STUDY DURATION: 32 WK), Promoter: NONE)
C[C@@]12CCc3occc3[C@H]1CC[C@@]13C[C@@H](CC[C@H]12)[C@@](O)(CO)C3	14/14 (100%), 14/14 (100%), 0%, not significant	14/14 (100%), 14/15 (93%), 7%, not significant	–	–	–
CSCC[C@H](N)C(=O)O	–	–	59%, 72%, -22%, not calculated	19/19 (100%), 9/18 (50%), 50%, p<0.01	20/28 (71.4%), 7/19 (36.8%), 48%, p<0.05
